Reference: patent US7947741B2, “Use and administration of bacterial efflux pump inhibitors” (Mpex Pharmaceuticals, Inc., priority 2004, dated 2011)

Legend:
clinical = settings: human, in vivo
[1] = test system: P. aeruginosa PAM1723 (nalB, overexpressing MexAB-OprM); test: microbe, parasite or virus in culture; assay type: cell-based, Pseudomonas aeruginosa
Description: (§1) Stock solutions were further diluted, according to the needs of a particular assay, in Mueller Hinton Broth (MHB). Stock solution was stored at −80° C.
(§2) The checkerboard assay was performed in microtiter plates. […] The result of these manipulations is that each well of the microtiter plate contains a unique combination of concentrations of the two agents. The assay was performed in MHB with a final bacterial inoculum of 5×10^5 CFU/ml (from an early-log phase culture). Microtiter plates were incubated during 20 h at 35° C. and were read using a microtiterplate reader (Molecular Devices) at 650 nm as well as visual observation using a microtiter plate reading mirror.
(§3) The test organisms used was PAM1020, which is a wild type strain of P. aeruginosa expressing the basal level of MexAB-OprM, as well as PAM1723, PAM1738, and PAM1753, overexpressing the MexAB-OprM, MexCD-OprJ, and MexEF-OprN pump, respectively.
Efflux pump inhibitory activity of several commercially available diamidine analogs was evaluated using the checkerboard assay of Example 1 against the strain of P. aeruginosa overexpressing the MexAB-OprM efflux pump.

[2] = test system: 108 recent clinical isolates of P. aeruginosa obtained from cystic fibrosis patients; test: Susceptibility of cystic fibrosis clinical isolates (broth-micro-dilution, NCCLS); assay type: cell-based, Pseudomonas aeruginosa; settings: 108 CF isolates; pentamidine 20 μg/ml
[3] = biological target: MexAB-OprM-mediated efflux of Leu-Nap, PAM1723 cells (Pseudomonas aeruginosa, UniProt P52002); test: Leu-Nap accumulation assay; assay type: cell-based
[4] = test system: PAM1626 cells (lacking the efflux pump); test: Leu-Nap accumulation assay; settings: Leu-Nap 100 μg/ml, pentamidine 0 to 80 μg/ml
Description: Leu-Nap, which is not fluorescent in solution, is cleaved enzymatically inside the cells to produce highly fluorescent β-naphthylamine. The more Leu-Nap enters cells, the more fluorescence is produced. The rate of production of β-naphthylamine (recorded as an increase in fluorescence) is limited by the rate of entry of Leu-Nap into the cell. To assess the uptake of Leu-Nap, cultures of P. aeruginosa were grown to OD600 ˜1, washed and re-suspended in buffer at pH 7.0 containing K2HPO4 50 mM, MgSO4 1 mM, and Glucose 0.4% (Buffer A). Assays were performed in 96-well flat bottom black plates (Applied Scientific or Costar) in a final volume of 200 μl and were initiated by addition of Leu-Nap to suspensions of intact cells to a final concentration of 100-20 μg/ml. Fluorescence was measured on a fMAX spectrofluorometer (Molecular Devices) using excitation of 320 nm and emission of 460 nm.

[5] = test system: P. aeruginosa PAM1738 (nfxB, overexpressing MexCD-OprJ); test: microbe, parasite or virus in culture; assay type: cell-based, Pseudomonas aeruginosa
Description: as §1, §2, §3

[6] = test system: P. aeruginosa PAM2282 (MexAB-OprM, MexEF-OprN); test: microbe, parasite or virus in culture; assay type: cell-based, Pseudomonas aeruginosa; settings: PAM2282
Description: (§4) A set of strains that simultaneously over-expressed pairs or triplicates of pumps, e.g. PAM2302 and PAM2303 was tested. Simultaneous over-expression of efflux pumps has been recently detected in clinical strains.

[7] = test system: P. aeruginosa PAM1438 (MexAB-OprM, MexCD-OprJ); test: microbe, parasite or virus in culture; assay type: cell-based, Pseudomonas aeruginosa; settings: PAM1438
Description: as §4

[8] = test system: P. aeruginosa PAM1548 (pump status none; gyrA (Thr83Ile)); test: microbe, parasite or virus in culture; assay type: cell-based, Pseudomonas aeruginosa; settings: PAM1548
Text: (§5) In addition to increased efflux, resistance to fluoroquinolones may be due to target mutations (gyrase and topoisimerase IV) or due to combination of these two resistance mechanisms in a single bacterial cell.

[9] = test system: P. aeruginosa PAM1033 (MexCD-OprJ); test: microbe, parasite or virus in culture; assay type: cell-based, Pseudomonas aeruginosa; settings: PAM1033
Text: as §5

[10] = test system: P. aeruginosa PAM1569 (MexCD-OprJ; gyrA (Thr83Ile)); test: microbe, parasite or virus in culture; assay type: cell-based, Pseudomonas aeruginosa; settings: PAM1569
Text: as §5

[11] = test system: P. aeruginosa PAM1032 (MexAB-OprM); test: microbe, parasite or virus in culture; assay type: cell-based, Pseudomonas aeruginosa; settings: PAM1032
Text: as §5

[12] = test system: P. aeruginosa PAM1491 (MexEF-OprN; gyrA (Asp87Tyr)); test: microbe, parasite or virus in culture; assay type: cell-based, Pseudomonas aeruginosa; settings: PAM1491
Text: as §5

[13] = test system: P. aeruginosa PAM1034 (MexEF-OprN); test: microbe, parasite or virus in culture; assay type: cell-based, Pseudomonas aeruginosa; settings: PAM1034
Text: as §5

[14] = test system: P. aeruginosa PAM1020 (pump status none; target mutation none); test: microbe, parasite or virus in culture; assay type: cell-based, Pseudomonas aeruginosa; settings: PAM1020
Text: as §5

[15] = test system: P. aeruginosa PAM1570 (MexEF-OprN; gyrA (Thr83Ile)); test: microbe, parasite or virus in culture; assay type: cell-based, Pseudomonas aeruginosa; settings: PAM1570
Text: as §5

[16] = test system: P. aeruginosa PAM1482 (MexCD-OprJ; gyrA (Asp87Tyr)); test: microbe, parasite or virus in culture; assay type: cell-based, Pseudomonas aeruginosa; settings: PAM1482
Text: as §5

[17] = cited from earlier work
[18] = 24 hours after 300 mg in a jet nebulizer

MexAB-OprM-mediated efflux of Leu-Nap, PAM1723 cells, sequence (Q51487 18-485): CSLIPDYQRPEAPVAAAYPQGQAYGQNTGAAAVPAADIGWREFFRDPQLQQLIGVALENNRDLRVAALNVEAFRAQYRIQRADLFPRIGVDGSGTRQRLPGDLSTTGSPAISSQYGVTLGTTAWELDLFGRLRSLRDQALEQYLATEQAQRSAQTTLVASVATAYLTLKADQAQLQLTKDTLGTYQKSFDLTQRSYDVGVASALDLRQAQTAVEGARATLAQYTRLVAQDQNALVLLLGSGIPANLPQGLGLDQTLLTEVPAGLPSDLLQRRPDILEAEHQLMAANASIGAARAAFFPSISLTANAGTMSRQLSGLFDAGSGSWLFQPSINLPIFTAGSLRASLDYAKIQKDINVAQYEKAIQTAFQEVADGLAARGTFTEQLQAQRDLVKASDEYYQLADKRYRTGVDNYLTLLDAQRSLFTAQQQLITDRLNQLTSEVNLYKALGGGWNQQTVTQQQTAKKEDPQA
MexAB-OprM-mediated efflux of Leu-Nap, PAM1723 cells, sequence (P52002 whole entry): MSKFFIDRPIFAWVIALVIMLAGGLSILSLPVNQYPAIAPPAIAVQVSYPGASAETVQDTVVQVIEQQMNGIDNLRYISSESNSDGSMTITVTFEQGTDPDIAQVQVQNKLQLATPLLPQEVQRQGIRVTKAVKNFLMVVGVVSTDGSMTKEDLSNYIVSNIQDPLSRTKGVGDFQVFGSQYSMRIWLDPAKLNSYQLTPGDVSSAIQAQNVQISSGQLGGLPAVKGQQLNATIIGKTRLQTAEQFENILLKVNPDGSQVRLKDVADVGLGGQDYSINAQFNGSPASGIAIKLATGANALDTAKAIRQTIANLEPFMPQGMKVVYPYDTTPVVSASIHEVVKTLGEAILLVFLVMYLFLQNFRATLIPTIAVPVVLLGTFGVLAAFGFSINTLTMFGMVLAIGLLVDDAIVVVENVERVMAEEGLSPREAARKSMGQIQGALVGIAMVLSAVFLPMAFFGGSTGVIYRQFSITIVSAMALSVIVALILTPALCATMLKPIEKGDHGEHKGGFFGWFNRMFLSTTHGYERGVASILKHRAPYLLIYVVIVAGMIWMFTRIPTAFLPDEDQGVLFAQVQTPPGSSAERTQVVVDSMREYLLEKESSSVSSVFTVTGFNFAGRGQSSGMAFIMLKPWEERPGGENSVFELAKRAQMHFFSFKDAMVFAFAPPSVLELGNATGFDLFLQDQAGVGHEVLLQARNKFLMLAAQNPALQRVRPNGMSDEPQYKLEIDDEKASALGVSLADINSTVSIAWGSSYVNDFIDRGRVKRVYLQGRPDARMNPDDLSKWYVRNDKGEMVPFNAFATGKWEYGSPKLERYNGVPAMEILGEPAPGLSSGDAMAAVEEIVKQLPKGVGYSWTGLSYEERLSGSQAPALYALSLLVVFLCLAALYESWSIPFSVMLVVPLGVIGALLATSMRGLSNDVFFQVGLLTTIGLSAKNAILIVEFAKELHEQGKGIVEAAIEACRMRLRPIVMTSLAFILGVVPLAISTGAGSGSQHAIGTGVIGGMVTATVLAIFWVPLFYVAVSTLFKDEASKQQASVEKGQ
MexAB-OprM-mediated efflux of Leu-Nap, PAM1723 cells, sequence (P52477 24-383, further chain): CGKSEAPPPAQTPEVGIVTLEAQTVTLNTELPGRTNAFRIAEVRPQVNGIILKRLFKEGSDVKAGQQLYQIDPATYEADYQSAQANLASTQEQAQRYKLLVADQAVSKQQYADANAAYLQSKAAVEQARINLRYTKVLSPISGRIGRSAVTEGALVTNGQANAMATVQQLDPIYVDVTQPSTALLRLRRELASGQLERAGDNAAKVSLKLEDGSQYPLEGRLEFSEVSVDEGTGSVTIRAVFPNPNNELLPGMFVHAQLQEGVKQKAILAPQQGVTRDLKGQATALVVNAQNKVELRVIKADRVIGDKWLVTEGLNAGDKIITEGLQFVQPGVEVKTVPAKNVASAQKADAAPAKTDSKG

## N=C(N)c1ccc(OCCCCCOc2ccc(C(=N)N)cc2)cc1 [Pentamidine, pentamidine]
clinical
  concentration at 7 day: ≤ 110 ng/mL
clinical; 70 mg/4 ml, T1/2 (a), CF sputum, Aerogen Clinical, high dose, a phase 0-8 hours, Mean
  half-life: 2.2 h
clinical; 70 mg/4 ml, T1/2 (β), CF sputum, Aerogen Clinical, high dose, β phase, Mean
  half-life: 24.4 h
clinical; 300 mg/6 ml, T1/2 (a), CF sputum, Respirgard II, high dose, a phase 0-8 hours, Mean
  half-life: 2.6 h
clinical; 300 mg/6 ml, T1/2 (β), CF sputum, Respirgard II, high dose, β phase, Mean
  half-life: 26.7 h
clinical; AUC (0 to 168)
  AUC(0-t): 84000 ng·h/mL
clinical; AUC (0 to infinity)
  AUC(0-inf): 84000 ng·h/mL
clinical; AUC (0 to last non-BLQ)
  AUC(0-t): 83000 ng·h/mL
clinical; Tmax (0 to 168)
  Tmax: 1.8 h
clinical; α phase half-life for elimination from sputum
  half-life: 2.2 to 2.6 h
[1]; PAM1723, inhibitor 1.25 μg/ml
  Levofloxacin MIC in the presence of inhibitor: 2 µg/mL
[1]; PAM1723, inhibitor 2.5 μg/ml
  Levofloxacin MIC in the presence of inhibitor: 1 µg/mL
[1]; PAM1723, inhibitor 5 μg/ml
  Levofloxacin MIC in the presence of inhibitor: 1 µg/mL
[1]; PAM1723, inhibitor 10 μg/ml
  Levofloxacin MIC in the presence of inhibitor: 0.5 µg/mL
[1]; PAM1723, inhibitor 10 μg/ml, listed as Pentamidine MP 601205
  Levofloxacin MIC in the presence of inhibitor: 1 µg/mL
[1]; PAM1723, inhibitor 20 μg/ml
  Levofloxacin MIC in the presence of inhibitor: 0.25 µg/mL
[1]; PAM1723, inhibitor 40 μg/ml
  Levofloxacin MIC in the presence of inhibitor: 0.06 µg/mL
[1]; PAM1723, inhibitor 80 μg/ml
  Levofloxacin MIC in the presence of inhibitor: 0.007 µg/mL
[1]; PAM1723, inhibitor alone, listed as Pentamidine MP 601205
  MIC* (MIC for the efflux pump inhibitor): >81 µg/mL
[1]; PAM1723, pentamidine at 20 μg/ml
  decrease of levofloxacin MIC: 8 fold
[1]; Pseudomonas aeruginosa, read-out: MIC* (MIC for the efflux pump inhibitor), PAM1723, inhibitor alone
  MIC: > 80 µg/mL
[1]; inhibitor at 10 μg/ml to 20 μg/ml
  reduction of the levofloxacin MIC of PAM1723 (2 μg/ml): at least 8 fold
[2]
  decrease of MIC50 of levofloxacin and ciprofloxacin: 8 fold
  decrease of MIC90 of levofloxacin and ciprofloxacin: 2 fold
[3]; Leu-Nap 100 μg/ml
  inhibitor concentration at which rate of Leu-Nap uptake in PAM1723 and PAM1626 is the same (complete inhibition of efflux): 40 µg/mL
[3]; dependence on Leu-Nap substrate concentration
  mode of inhibition: uncompetitive inhibition
[3]; external Leu-Nap 60 μg/ml, fluorescence change in 30 min
  pentamidine required for complete inhibition of the pump: 80 µg/mL
[3]; external Leu-Nap 120 μg/ml, fluorescence change in 30 min
  pentamidine required to completely inhibit MexAB-OprM-mediated efflux: 20 µg/mL
[4]
  effect on Leu-Nap uptake: No such increase
[5]; PAM1738, inhibitor 1.25 μg/ml
  Levofloxacin MIC in the presence of inhibitor: 0.5 µg/mL
[5]; PAM1738, inhibitor 2.5 μg/ml
  Levofloxacin MIC in the presence of inhibitor: 0.25 µg/mL
[5]; PAM1738, inhibitor 5 μg/ml
  Levofloxacin MIC in the presence of inhibitor: 0.25 µg/mL
[5]; PAM1738, inhibitor 10 μg/ml
  Levofloxacin MIC in the presence of inhibitor: 0.25 µg/mL
[5]; PAM1738, inhibitor 20 μg/ml
  Levofloxacin MIC in the presence of inhibitor: 0.125 µg/mL
[5]; PAM1738, inhibitor 40 μg/ml
  Levofloxacin MIC in the presence of inhibitor: 0.03 µg/mL
[5]; PAM1738, inhibitor 80 μg/ml
  Levofloxacin MIC in the presence of inhibitor: 0.015 µg/mL
[5]; PAM1738, pentamidine at 20 μg/ml
  decrease of levofloxacin MIC: 4 fold
[5]; Pseudomonas aeruginosa, read-out: MIC* (MIC for the efflux pump inhibitor)
  MIC: > 80 µg/mL
[6]
  Ciprofloxacin MIC w/pentamidine at 20 μg/ml: 0.125 µg/mL
  Levofloxacin MIC w/pentamidine at 20 μg/ml: 0.25 µg/mL
[7]
  Ciprofloxacin MIC w/pentamidine at 20 μg/ml: 0.25 µg/mL
  Levofloxacin MIC w/pentamidine at 20 μg/ml: 0.25 µg/mL
[8]
  Ciprofloxacin MIC w/pentamidine at 20 μg/ml: 0.5 µg/mL
  Levofloxacin MIC w/pentamidine at 20 μg/ml: 0.25 µg/mL
[9]
  Ciprofloxacin MIC w/pentamidine at 20 μg/ml: 0.25 µg/mL
  Levofloxacin MIC w/pentamidine at 20 μg/ml: 0.25 µg/mL
[10]
  Ciprofloxacin MIC w/pentamidine at 20 μg/ml: 4 µg/mL
  Levofloxacin MIC w/pentamidine at 20 μg/ml: 4 µg/mL
[11]
  Ciprofloxacin MIC w/pentamidine at 20 μg/ml: 0.06 µg/mL
  Levofloxacin MIC w/pentamidine at 20 μg/ml: 0.125 µg/mL
[12]
  Ciprofloxacin MIC w/pentamidine at 20 μg/ml: 1 µg/mL
  Levofloxacin MIC w/pentamidine at 20 μg/ml: 2 µg/mL
[13]
  Ciprofloxacin MIC w/pentamidine at 20 μg/ml: 0.06 µg/mL
  Levofloxacin MIC w/pentamidine at 20 μg/ml: 0.125 µg/mL
[14]
  Ciprofloxacin MIC w/pentamidine at 20 μg/ml: 0.015 µg/mL
  Levofloxacin MIC w/pentamidine at 20 μg/ml: 0.03 µg/mL
[15]
  Ciprofloxacin MIC w/pentamidine at 20 μg/ml: 2 µg/mL
  Levofloxacin MIC w/pentamidine at 20 μg/ml: 2 µg/mL
[16]
  Ciprofloxacin MIC w/pentamidine at 20 μg/ml: 2 µg/mL
  Levofloxacin MIC w/pentamidine at 20 μg/ml: 1 µg/mL
[17]; [18]
  concentration in bronchial alveolar lavage fluid sediment: 705 ± 242 ng/mL
  concentration in bronchial alveolar lavage fluid supernatant: 23.2 ± 7.75 ng/mL
[17]; after 3 weeks of daily administration of 3 mg/kg
  trough plasma concentration: 61.1 ± 56.0 ng/mL
